In patent publication US20250051338A1, “TYK2 DEGRADERS AND USES THEREOF” (Kymera Therapeutics, Inc., priority 2021, published 2025):

Assays:
Type in all cases: cell-based
TYK2 [1] = target: T1, TYK2 (Homo sapiens, UniProt P29597); assay: TYK2 degradation MSD assay in human PBMC cells; design: endogenous in cells; host or cells: human PBMC; conditions: 4 to 24 hours incubation, read-out: TYK2 MSD DC50 rating in human PBMC
Description: (§1) Example 3. TYK2 Degradation MSD Assay in EBV-B, OCI-LY10, and Human PBMC Cells
(§2) Degradation of TYK2 in cells was quantitatively measured using Meso Scale Discovery (MSD) technology. EBV-B, OCI-LY10 or human PBMC cells were seeded in 96-well plates with a density of 0.4 million cells per well in 100 μl fresh media. Compounds were then added to the assay plates with a final top concentration of 1 to 10 μM in a 1:3 dilution series with total of 9 doses. The assay plates were then incubated for 4 to 24 hours at 37° C. under 5% CO2. The assay plates were then centrifuged for 5 minutes, and the cell pellets were treated with 100 μl/well RIPA lysis buffer (Boston Bioproducts, BP-115D) with protease and phosphatase inhibitors (Roche, 05892791001 and 04906837001). To prepare MSD assay plates (MSD, L15XA), the plates were coated with the capture antibody (Santa Cruz Biotechnology, SC-5271) in PBS, at 40 μl/well. The plates were then incubated overnight at 4° C., washed 3 times with 150 μl/well TBST buffer (Cell Signaling Technology, 9997S) and blocked with 150 μl/well blocking buffer (MSD, R93BA-4). Cell lysates were then added to MSD assay plates and the plates were incubated at room temperature for 1 hour. The plates were then washed 3 times with 150 μl/well TBST buffer and 25 μl/well primary detection antibody (Cell Signaling Technology, #9312). The assay plates were then incubated at room temperature for 1 hour, washed 3 times with 150 μl/well TBST buffer, and 25 μl/well secondary detection antibody, SULFO-TAG anti-rabbit antibody (MSD, R32AB-1) were added. The assay plates were then incubated at room temperature for 1 hour, washed 3 times with 150 μl/well TBST buffer, and 150 μl/well MSD reading buffer (MSD, R92TC-2) were added. The plates were then analyzed by an MSD reader. The data was analyzed by GraphPad Prism and the dose dependent TYK2 degradation was fit using the four-parameter inhibitor vs. response nonlinear regression. The DC50 data were measured and categorized into different levels in Table H. The compound with DC50 less than or equal to 1 nM is marked as A, with DC50 more than 1 nM and less than or equal to 10 nM is marked as B, with DC50 more than 10 nM and less than or equal to 100 nM is marked as C, and with DC50 more than 100 nM or not available is marked as D.

TYK2 [2] = target: T1, TYK2; assay: TYK2 degradation MSD assay in OCI-LY10 cells; design: endogenous in cells; host or cells: EBV-B cells; conditions: 4 to 24 hours incubation, read-out: TYK2 MSD DC50 rating in OCI-LY10
Description: as §1, §2

TYK2 [3] = target: T1, TYK2; assay: TYK2 degradation MSD assay in EBV-B cells; design: endogenous in cells; host or cells: EBV-B cells; conditions: 4 to 24 hours incubation, read-out: TYK2 MSD DC50 rating in EBV-B
Description: as §1, §2

T1 sequence (P29597 whole entry): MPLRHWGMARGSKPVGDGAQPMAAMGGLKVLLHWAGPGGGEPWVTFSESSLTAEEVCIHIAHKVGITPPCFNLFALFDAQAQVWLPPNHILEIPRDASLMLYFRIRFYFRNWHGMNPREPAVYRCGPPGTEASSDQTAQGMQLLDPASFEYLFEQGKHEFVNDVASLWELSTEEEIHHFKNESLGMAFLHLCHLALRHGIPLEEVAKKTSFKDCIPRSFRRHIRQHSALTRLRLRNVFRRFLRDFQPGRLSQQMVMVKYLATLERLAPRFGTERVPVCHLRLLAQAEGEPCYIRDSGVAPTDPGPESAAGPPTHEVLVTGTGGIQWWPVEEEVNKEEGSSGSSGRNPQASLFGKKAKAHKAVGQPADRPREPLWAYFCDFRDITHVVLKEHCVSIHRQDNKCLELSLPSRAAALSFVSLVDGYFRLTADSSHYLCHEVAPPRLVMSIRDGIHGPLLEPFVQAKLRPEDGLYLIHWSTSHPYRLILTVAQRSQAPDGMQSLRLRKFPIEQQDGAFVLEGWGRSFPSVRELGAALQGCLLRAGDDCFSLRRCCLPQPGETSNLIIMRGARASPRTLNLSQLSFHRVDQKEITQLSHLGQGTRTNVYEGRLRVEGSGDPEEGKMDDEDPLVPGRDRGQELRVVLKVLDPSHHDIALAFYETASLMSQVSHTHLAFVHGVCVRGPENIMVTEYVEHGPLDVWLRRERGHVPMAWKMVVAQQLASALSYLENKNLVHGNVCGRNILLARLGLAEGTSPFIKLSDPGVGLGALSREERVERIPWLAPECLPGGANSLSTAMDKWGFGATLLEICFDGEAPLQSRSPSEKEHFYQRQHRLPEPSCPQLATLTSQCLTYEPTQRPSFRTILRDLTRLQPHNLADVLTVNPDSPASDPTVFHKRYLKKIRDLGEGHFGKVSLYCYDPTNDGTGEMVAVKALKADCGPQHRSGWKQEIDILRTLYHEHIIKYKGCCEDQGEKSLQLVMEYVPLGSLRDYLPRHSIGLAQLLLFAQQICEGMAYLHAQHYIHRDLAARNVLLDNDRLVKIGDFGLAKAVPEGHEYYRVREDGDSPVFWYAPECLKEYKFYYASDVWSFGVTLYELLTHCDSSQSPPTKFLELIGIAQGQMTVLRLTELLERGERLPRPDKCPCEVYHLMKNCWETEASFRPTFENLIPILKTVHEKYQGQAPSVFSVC

Row | SMILES | DC50 (TYK2 [1]) [nM] | DC50 (TYK2 [2]) [nM] | DC50 (TYK2 [3]) [nM]
1 | CNC(=O)c1cnc(Nc2ccc(C(=O)NCCCCc3cccc4c3n(C)c(=O)n4C3CCC(=O)NC3=O)cn2)cc1Nc1cccc(-c2ncc(F)cn2)c1OC (stereo not drawn) [Example K114] | < 1 | < 1 | 1 to 10
2 | CNC(=O)c1cnc(Nc2ccc(C(=O)NCCCCCCc3cccc4c3n(C)c(=O)n4C3CCC(=O)NC3=O)cn2)cc1Nc1cccc(-c2ncc(F)cn2)c1OC (stereo not drawn) [Example K115] | < 1 | > 100 | < 1
3 | CNC(=O)c1cnc(Nc2ccc(C(=O)NCCCCCCCCc3cccc4c3n(C)c(=O)n4C3CCC(=O)NC3=O)cn2)cc1Nc1cccc(-c2ncc(F)cn2)c1OC (stereo not drawn) [Example K116] | 1 to 10 | > 100 | 1 to 10
4 | CNC(=O)c1cnc(Nc2cc(C(=O)NCCCCc3ccc4c(c3)n(C)c(=O)n4C3CCC(=O)NC3=O)ccn2)cc1Nc1cccc(-c2ncc(F)cn2)c1OC (stereo not drawn) [Example K126] | < 1 | > 100 | > 100
5 | CNC(=O)c1cnc(Nc2cc(C(=O)NCCCCCCc3ccc4c(c3)n(C)c(=O)n4C3CCC(=O)NC3=O)ccn2)cc1Nc1cccc(-c2ncc(F)cn2)c1OC (stereo not drawn) [Example K127] | < 1 | > 100 | > 100
6 | CNC(=O)c1cnc(Nc2cc(C(=O)NCCCCc3cccc4c3n(C)c(=O)n4C3CCC(=O)NC3=O)ccn2)cc1Nc1cccc(-c2ncc(F)cn2)c1OC (stereo not drawn) [Example K128] | 1 to 10 | > 100 | > 100
7 | CNC(=O)c1cnc(Nc2cc(C(=O)NCCCCCCCCc3ccc4c(c3)n(C)c(=O)n4C3CCC(=O)NC3=O)ccn2)cc1Nc1cccc(-c2ncc(F)cn2)c1OC (stereo not drawn) [Example K129] | < 1 | > 100 | 1 to 10
8 | CNC(=O)c1cnc(Nc2cc(C(=O)NCCCCCCCCc3cccc4c3n(C)c(=O)n4C3CCC(=O)NC3=O)ccn2)cc1Nc1cccc(-c2ncc(F)cn2)c1OC (stereo not drawn) [Example K130] | 1 to 10 | > 100 | 1 to 10
9 | CNC(=O)c1cnc(Nc2ccc(C(=O)N(C)C3CCN(c4ccc5c(c4)n(C)c(=O)n5C4CCC(=O)NC4=O)CC3)cn2)cc1Nc1ccccc1OC (stereo not drawn) [Example K133] | > 100 | > 100 | 1 to 10
10 | CNC(=O)c1cnc(Nc2ccc(CN(C)CC3CCN(Cc4cccc5c4n(C)c(=O)n5C4CCC(=O)NC4=O)CC3)cn2)cc1Nc1cccc(-c2ncc(F)cn2)c1OC (stereo not drawn) [Example K134] | < 1 | > 100 | < 1
11 | CNC(=O)c1cnc(Nc2ccc(CN(C)C3CCN(Cc4cccc5c4n(C)c(=O)n5C4CCC(=O)NC4=O)CC3)cn2)cc1Nc1cccc(-c2ncc(F)cn2)c1OC (stereo not drawn) [Example K137] | < 1 | > 100 | < 1
12 | CNC(=O)c1cnc(Nc2ccc(CN3CCC(OC4CC(c5cccc6c5n(C)c(=O)n6C5CCC(=O)NC5=O)C4)CC3)cn2)cc1Nc1cccc(-c2ncc(F)cn2)c1OC (stereo not drawn) [Example K141] | < 1 | < 1 | > 100
13 | CNC(=O)c1cnc(Nc2ccc(CN3CC(C)(Cc4ccc5c(c4)n(C)c(=O)n5C4CCC(=O)NC4=O)C3)cn2)cc1Nc1cccc(-c2ncc(F)cn2)c1OC (stereo not drawn) [Example K142] | 1 to 10 | > 100 | < 1
14 | CNC(=O)c1cnc(Nc2ccc(CN3CCCC4(C3)CN(c3ncc(C#Cc5ccc6c(c5)n(C)c(=O)n6C5CCC(=O)NC5=O)cn3)C4)cn2)cc1Nc1cccc(-c2ncc(F)cn2)c1OC (stereo not drawn) [Example K145] | 1 to 10 | > 100 | 1 to 10
15 | CNC(=O)c1cnc(Nc2ccc(CN(C)CCCOC3CC(c4ccc5c(c4)n(C)c(=O)n5C4CCC(=O)NC4=O)C3)cn2)cc1Nc1cccc(-c2ncc(F)cn2)c1OC (stereo not drawn) [Example K148] | < 1 | > 100 | < 1
16 | CNC(=O)c1cnc(Nc2ccc(CN3CC4(CCN(c5cccc6c5n(C)c(=O)n6C5CCC(=O)NC5=O)CC4)C3)cn2)cc1Nc1cccc(-c2ncc(F)cn2)c1OC (stereo not drawn) [Example K150] | < 1 | > 100 | < 1
17 | CNC(=O)c1cnc(Nc2ccc(CN3CCC(OCC#Cc4cccc5c4n(C)c(=O)n5C4CCC(=O)NC4=O)CC3)cn2)cc1Nc1cccc(-c2ncc(F)cn2)c1OC (stereo not drawn) [Example K151] | > 100 | > 100 | < 1
18 | CCNC(=O)c1cnc(Nc2ccc(C(=O)N(C)C3CCN(c4ccc5c(c4)n(C)c(=O)n5C4CCC(=O)NC4=O)CC3)cn2)cc1Nc1cccc(-c2ncc(F)cn2)c1OC (stereo not drawn) [Example K152] | > 100 | > 100 | 1 to 10
19 | CNC(=O)c1cnc(Nc2ccc(CN(C)C3CN(c4ccc5c(c4)n(C)c(=O)n5C4CCC(=O)NC4=O)C3)cn2)cc1Nc1cccc(-c2ncc(F)cn2)c1OC (stereo not drawn) [Example K153] | < 1 | < 1 | > 100
20 | CNC(=O)c1cnc(Nc2ccc(CN(C)C3CN(c4cccc5c4n(C)c(=O)n5C4CCC(=O)NC4=O)C3)cn2)cc1Nc1cccc(-c2ncc(F)cn2)c1OC (stereo not drawn) [Example K154] | < 1 | < 1 | > 100

More lines, now with the values ahead:

Row | DC50 (TYK2 [1]) [nM] | DC50 (TYK2 [2]) [nM] | DC50 (TYK2 [3]) [nM] | SMILES
21 | < 1 | > 100 | < 1 | CNC(=O)c1cnc(Nc2ccc(CN(C)CC3CCN(c4ccc5c(c4)n(C)c(=O)n5C4CCC(=O)NC4=O)CC3)cn2)cc1Nc1cccc(-c2ncc(F)cn2)c1OC (stereo not drawn) [Example K135]
22 | 1 to 10 | > 100 | < 1 | CNC(=O)c1cnc(Nc2ccc(CN3CCC(CC#Cc4cccc5c4n(C)c(=O)n5C4CCC(=O)NC4=O)CC3)cn2)cc1Nc1cccc(-c2ncc(F)cn2)c1OC (stereo not drawn) [Example K136]
23 | < 1 | > 100 | < 1 | CNC(=O)c1cnc(Nc2ccc(CN3CCN(CCc4ccc5c(c4)n(C)c(=O)n5C4CCC(=O)NC4=O)CC3)cn2)cc1Nc1cccc(-c2ncc(F)cn2)c1OC (stereo not drawn) [Example K138]
24 | < 1 | > 100 | < 1 | CNC(=O)c1cnc(Nc2ccc(CN3CCN(CC4CCN(c5ccc(-c6ccc7c(c6)n(C)c(=O)n7C6CCC(=O)NC6=O)cc5)CC4)CC3)cn2)cc1Nc1cccc(-c2ncc(F)cn2)c1OC (stereo not drawn) [Example K139]
25 | 1 to 10 | > 100 | < 1 | CNC(=O)c1cnc(Nc2ccc(CN3CCC(N4CC(c5ccc6c(c5)n(C)c(=O)n6C5CCC(=O)NC5=O)C4)CC3)cn2)cc1Nc1cccc(-c2ncc(F)cn2)c1OC (stereo not drawn) [Example K140]
26 | < 1 | > 100 | > 100 | CNC(=O)c1cnc(Nc2ccc(CN3CCN(C(=O)CCc4ccc5c(c4)n(C)c(=O)n5C4CCC(=O)NC4=O)CC3)cn2)cc1Nc1cccc(-c2ncc(F)cn2)c1OC (stereo not drawn) [Example K143]
27 | < 1 | > 100 | < 1 | CNC(=O)c1cnc(Nc2ccc(CN3CCC4(CC3)CC(Cc3ccc5c(c3)n(C)c(=O)n5C3CCC(=O)NC3=O)C4)cn2)cc1Nc1cccc(-c2ncc(F)cn2)c1OC (stereo not drawn) [Example K144]
28 | < 1 | > 100 | < 1 | CNC(=O)c1cnc(Nc2ccc(CN3CCC(CN4CCC(c5ccc6c(c5)n(C)c(=O)n6C5CCC(=O)NC5=O)CC4)CC3)cn2)cc1Nc1cccc(-c2ncc(F)cn2)c1OC (stereo not drawn) [Example K146]
29 | 1 to 10 | > 100 | < 1 | CNC(=O)c1cnc(Nc2ccc(CN3CCC(CN(C)c4ccc5c(c4)n(C)c(=O)n5C4CCC(=O)NC4=O)CC3)cn2)cc1Nc1cccc(-c2ncc(F)cn2)c1OC (stereo not drawn) [Example K147]
30 | > 100 | > 100 | < 1 | CNC(=O)c1cnc(Nc2ccc(CN3CC4(CCN(c5ccc6c(c5)n(C)c(=O)n6C5CCC(=O)NC5=O)CC4)C3)cn2)cc1Nc1cccc(-c2ncc(F)cn2)c1OC (stereo not drawn) [Example K149]
31 | < 1 | > 100 | < 1 | CNC(=O)c1cnc(Nc2ccc(CN(C)C3CCN(c4ccc5c(c4)n(C)c(=O)n5C4CCC(=O)NC4=O)CC3)cn2)cc1Nc1cccc(-c2ncc(F)cn2)c1OC (stereo not drawn) [Example K155]
